Where two headings read alike, the source gives them in different places.
Conditions: for Total gain / Weekly gain / Final wt.: kittens; for Total gain / Weekly gain: 10 weeks post-weaning; for Final wt.: end of 10-week trial
Text: Dietary methionine was fed to growing kittens at three levels (0.77, 1.14, and 1.50%) to determine the effect of methionine on growth performance and antioxidant activity. Kittens were fed meat based, canned diets for 10 weeks post-weaning.

[1] = Week 5, dietary methionine 0.77 wt %
[2] = Week 5, dietary methionine 1.14 wt %
[3] = Week 5, dietary methionine 1.50 wt %
[4] = Week 10, dietary methionine 0.77 wt %
[5] = Week 10, dietary methionine 1.14 wt %
[6] = Week 10, dietary methionine 1.50 wt %
[7] = week 5, 1.50 wt % dietary methionine vs 0.77 wt %
[8] = week 10, 1.50 wt % dietary methionine vs 0.77 wt %

CSCC[C@H](N)C(=O)O [methionine]
Weekly weight gain, in words (1.14 wt % and 1.50 wt % dietary methionine compared to 0.77 wt %): increased
ORAC (oxygen radical absorptive capacity) [1]: 2521.84
Taurine (whole blood) [1]: 575.63
Vitamin E (serum) [1]: 15.63
ORAC (oxygen radical absorptive capacity) [2]: 2694.51
Taurine (whole blood) [2]: 630.00
Vitamin E (serum) [2]: 19.86
ORAC (oxygen radical absorptive capacity) [3]: 3164.36
Taurine (whole blood) [3]: 783.71
Vitamin E (serum) [3]: 30.19
ORAC (oxygen radical absorptive capacity) [4]: 2972.53
Taurine (whole blood) [4]: 625.75
Vitamin E (serum) [4]: 20.74
ORAC (oxygen radical absorptive capacity) [5]: 2503.38
Taurine (whole blood) [5]: 616.13
Vitamin E (serum) [5]: 24.24
ORAC (oxygen radical absorptive capacity) [6]: 3013.31
Taurine (whole blood) [6]: 784.57
Vitamin E (serum) [6]: 25.13
Total gain (dietary methionine 0.77 wt %): 950.00 g
Weekly gain (dietary methionine 0.77 wt %): 95.00 g
Final wt. (dietary methionine 0.77 wt %): 1518.75 g
Total gain (dietary methionine 1.14 wt %): 1075.00 g
Weekly gain (dietary methionine 1.14 wt %): 107.50 g
Final wt. (dietary methionine 1.14 wt %): 1612.50 g
Total gain (dietary methionine 1.50 wt %): 1221.43 g
Weekly gain (dietary methionine 1.50 wt %): 122.14 g
Final wt. (dietary methionine 1.50 wt %): 1792.86 g
Blood taurine concentrations, in words [7]: greater
Oxygen radical absorptive capacity (ORAC), in words [7]: greater
Vitamin E concentrations, in words [7]: greater
Oxygen radical absorptive capacity, in words (week 10): not increased
Serum vitamin E concentrations, in words [8]: greater
Whole blood taurine concentrations, in words [8]: greater

Reference: patent publication US20140316005A1, “COMPOSITIONS FOR IMPROVED OXIDATIVE STATUS IN COMPANION ANIMALS” (HILL'S PET NUTRITION, INC., priority 2003, published 2014)
